How the values were obtained:
[1] = Antiinflammatory activity in mouse neutrophils assessed as inhibition of LPS-stimulated TNFalpha cytokine expression at 1 ug/ml after 3 hrs by flow cytometeric analysis; assay type: functional; settings: Neutrophil
[2] = Antiinflammatory activity in mouse neutrophils assessed as inhibition of LPS-stimulated IL1-beta expression after 4-5 hrs by ELISA relative to control; assay type: functional, Neutrophil
[3] = Antiinflammatory activity in mouse neutrophils assessed as inhibition of LPS-stimulated TNFalpha cytokine expression at 100 ug/ml after 3 hrs by flow cytometeric analysis; assay type: functional; settings: Neutrophil
[4] = Antiinflammatory activity in mouse neutrophils assessed as inhibition of LPS-stimulated IL-6 expression at 100 ug/ml after 4-5 hrs by ELISA relative to control; assay type: functional; settings: Neutrophil
[5] = Antiinflammatory activity in mouse neutrophils assessed as inhibition of LPS-stimulated IL-6 expression at 1 ug/ml after 4-5 hrs by ELISA relative to control; assay type: functional; settings: Neutrophil
[6] = Antiinflammatory activity in mouse neutrophils assessed as inhibition of LPS-stimulated IL1-beta expression at 1 ug/ml after 4-5 hrs by ELISA relative to control; assay type: functional; settings: Neutrophil

SMILES: C=C1C(=O)O[C@@H]2[C@H]1CC[C@H](C)[C@]1(OC(=O)CCC)C=CC(=O)O[C@@]21C
- inhibition at 1 µg/mL [1]: 12.5%

SMILES: COc1ccc(C2CNC(=O)C2)cc1OC1CCCC1 (centres undefined) [ROLIPRAM]
- inhibition (INH) [2]: 64.27%
- inhibition at 100 µg/mL [3]: 71.5%
- inhibition at 100 µg/mL [4]: 36.1%

SMILES: C=C1C(=O)O[C@@H]2[C@H]1CC[C@H](C)[C@]1(OC(C)=O)C=CC(=O)O[C@@]21C
- inhibition at 1 µg/mL [1]: 16.8%

SMILES: CC1=C2CC[C@H](C)[C@]3(O)CCC(=O)O[C@@]3(C)[C@@H]2OC1=O
- inhibition at 1 µg/mL [1]: 53.1%
- inhibition at 1 µg/mL [5]: 17.1%
- inhibition at 1 µg/mL [6]: 40.9%

SMILES: C=C1C(=O)O[C@@H]2[C@H]1CC[C@H](C)[C@]1(CCC(=O)O1)[C@@]2(C)O [PSILOSTACHYIN A]
- inhibition at 1 µg/mL [1]: 39.5%

SMILES: C=C1C(=O)O[C@@H]2[C@H]1CC[C@H](C)C1=C[C@H](OC(C)=O)C(=O)[C@]12C
- inhibition at 1 µg/mL [1]: 5.46%

SMILES: C=C1C(=O)O[C@@H]2[C@H]1CC[C@H](C)C1=C[C@@H](OC(C)=O)C(=O)[C@]12C
- inhibition at 1 µg/mL [1]: 2.34%

SMILES: C[C@H]1CC[C@@H]2[C@@H](OC(=O)[C@@]23CCN=N3)[C@](C)(O)[C@@]12C=CC(=O)O2
- inhibition at 1 µg/mL [1]: 49.2%
- inhibition at 1 µg/mL [5]: 11.3%
- inhibition at 1 µg/mL [6]: 36%

SMILES: C=C1C(=O)O[C@@H]2[C@H]1CC[C@H](C)[C@]1(OC(C)=O)C=CC(=O)[C@@]21C
- inhibition at 1 µg/mL [1]: -1.17%

SMILES: C=C1C(=O)O[C@@H]2[C@H]1CC[C@H](C)[C@]1(O)CCC(=O)[C@@]21C [CORONOPILIN]
- inhibition at 1 µg/mL [1]: -7.03%

SMILES: C=C1C(=O)O[C@@H]2[C@H]1CC[C@H](C)[C@]1(OC(=O)CC)C=CC(=O)O[C@@]21C
- inhibition at 1 µg/mL [1]: 26.9%

SMILES: C=C1C(=O)O[C@@H]2[C@H]1CC[C@H](C)[C@]1(C=CC(=O)O1)[C@@]2(C)O
- inhibition at 1 µg/mL [1]: 31.2%

SMILES: C=C1C(=O)O[C@@H]2[C@H]1CC[C@H](C)[C@]1(O)C=CC(=O)[C@@]21C [PARTHENIN]
- inhibition at 1 µg/mL [1]: -0.39%

SMILES: C=C1C(=O)O[C@@H]2[C@H]1CC[C@H](C)[C@]1(O)C=CC(=O)O[C@@]21C
- inhibition at 1 µg/mL [1]: 41.4%

SMILES: C=C1C(=O)O[C@@H]2[C@H]1CC[C@H](C)C1=C[C@@H](OC(=O)CCC)C(=O)[C@]12C
- inhibition at 1 µg/mL [1]: 32%

SMILES: C=C1C(=O)O[C@@H]2[C@H]1CC[C@H](C)C1=C[C@H](OC(=O)CCC)C(=O)[C@]12C
- inhibition at 1 µg/mL [1]: -6.64%

SMILES: C=C1C(=O)O[C@@H]2[C@H]1CC[C@H](C)[C@]1(OC(=O)CC)C=CC(=O)[C@@]21C
- inhibition at 1 µg/mL [1]: -17.2%

SMILES: C=C1C(=O)O[C@@H]2[C@H]1CC[C@H](C)C1=C[C@H](OC(=O)CC)C(=O)[C@]12C
- inhibition at 1 µg/mL [1]: 10.5%

SMILES: C=C1C(=O)O[C@@H]2[C@H]1CC[C@H](C)C1=C[C@@H](OC(=O)CC)C(=O)[C@]12C
- inhibition at 1 µg/mL [1]: -9.37%

SMILES: C[C@H]1CC[C@@H]2[C@@H](OC(=O)[C@@]23CCN=N3)[C@]2(C)OC(=O)C=C[C@@]12O
- inhibition at 1 µg/mL [1]: 59.8%
- inhibition at 1 µg/mL [5]: 14%
- inhibition at 1 µg/mL [6]: 41.4%

SMILES: C=C1C(=O)O[C@@H]2[C@H]1CC[C@H](C)[C@]1(OC(=O)CCC)C=CC(=O)[C@@]21C
- inhibition at 1 µg/mL [1]: 14.1%
